The values that follow come from patent publication US9079858B2, “Rock kinase inhibitors” (Amakem NV, priority 2011, dated 2015).

Data set [1] can be described thus: Stability assay in rabbit vitreous humor. The data set is classed as in vitro ADME. The following applies: 1 μM in rabbit vitreous; for half-life at 1 μM: rabbit vitreous humor, read-out: t½ Rabbit VH. As for the experimental part:
(§1) Compounds are incubated at a concentration of 1 μM in rabbit aqueous humor (AH) or rabbit vitreous (VH). Samples are taken at fixed time points and the remnant of compound is determined by LC-MS/MS after protein precipitation.

Data set [2] is described as follows: Stability assay in rabbit aqueous humor. Type of data set: in vitro ADME. The following applies: 1 μM in rabbit aqueous humor; for half-life at 1 μM: read-out: t½ Rabbit AH. How it is done: as §1
The test system of another data set is human hepatocytes. The experiment in a line: Stability assay in human hepatocytes. Type of data set: in vitro ADME. Particulars: 1 μM. How it is done:
Compounds are incubated at a concentration of 1 μM with human hepatocytes (2 10^6 cells/ml in buffer solution). At fixed time points (ex: 1, 30, 60 & 120 minutes), an incubation mixture (200 μl) is cooled down on ice and 100 μl of acetonitrile is added. After vortex-mixing, the sample is centrifuged for 5 minutes at 16000 rpm. The remnant of compound in each sample is determined by LC-PDA-MS/MS analysis and half-life of the compound is subsequently calculated. Formation of the acid metabolite resulting from ester hydrolysis can be performed simultaneously. Peak areas for appearance of the acid are first recorded, and the corresponding concentrations are then back-calculated from calibration curve.
When evaluated under such conditions, compounds of the invention are rapidly degraded in the corresponding acid (primary metabolite).

Data set [3] is described as follows: Pharmacokinetics after intravenous and oral administration in mice. Type of data set: in vivo, male CD-1 mice. As for the experimental part: The bioavailability of compound 1 was evaluated after intravenous and oral dosing in male CD-1 mice. The compound was dosed at 0.1 mg/kg intravenously and 1 mg/kg orally. Plasma levels were determined by LC-MS/MS and pharmacokinetic parameters were estimated by a non-compartmental model using WinNonlin v5.2.1 software.

A word on the Cmax: it is the highest concentration seen after dosing. With `COC(=O)c1ccc(NC(=O)c2cccc(-c3cc(C(=O)Nc4ccncc4F)ccc3CN)c2)cc1` [Compound 1, methyl 4-({3-[2-(aminomethyl)-5-[(3-fluoropyridin-4-yl)carbamoyl]phenyl]phenyl}amido)benzoate], in data set [1], the “t½ Rabbit VH” value is above 1 h. In addition, in data set [2], the “t½ Rabbit AH” value is above 1 h. Besides, in the data set with human hepatocytes, the “t1/2 in human hepatocytes” value is 0.233 h. Besides, the “% remaining” value is 100.0% with human hepatocytes (time 1 min), 16.0 +/− 0.4% in the data set with human hepatocytes (time 30 min), 4.8 +/− 0.1% in the data set with human hepatocytes (time 60 min) and 2.4 +/− 1.3% with human hepatocytes (time 120 min). Besides, in data set [3] (intravenous 0.1 mg/kg), the “AUClast (intravenous exposure)” value came to 4.82 ± 0.276 ng·h/mL. For the same compound, in data set [3] (intravenous 0.1 mg/kg), the clearance turned out to be 257 mL/min/kg. In addition, the volume of distribution in data set [3] (intravenous 0.1 mg/kg) came out at 100 L/kg. Moreover, the Cmax amounted to 16.3 ng/mL in data set [3] (intravenous 0.1 mg/kg, mouse plasma) and 22.4 ± 22 ng/mL in data set [3] (oral 1 mg/kg). For the same compound, in data set [3] (mice, intravenous and oral), the “metabolism and excretion in words” value was “rapidly metabolized and excreted from the body very rapidly”. The compound also displayed an AUClast in data set [3] (oral 1 mg/kg) of 6.20 ± 5.50 ng·h/mL. Also, in data set [3] (oral 1 mg/kg vs intravenous 0.1 mg/kg), the percent oral bioavailability turned out to be 12.9%.

Regarding `COC(=O)c1ccc(NC(=O)c2cccc(-c3cc(C(=O)Nc4ccncc4F)ccc3CN)c2)c(F)c1` [Compound 2, methyl 4-({3-[2-(aminomethyl)-5-[(3-fluoropyridin-4-yl)carbamoyl]phenyl]phenyl}amido)-3-fluorobenzoate], the “t½ Rabbit VH” value in data set [1] was above 1 h. For the same compound, the “t½ Rabbit AH” value in data set [2] was above 1 h.

On to `COC(=O)c1ccc(NC(=O)c2cccc(-c3cc(C(=O)Nc4ccncc4F)ccc3CN)c2)cc1F` [Compound 3, methyl 4-({3-[2-(aminomethyl)-5-[(3-fluoropyridin-4-yl)carbamoyl]phenyl]phenyl}amido)-2-fluorobenzoate], for which, in data set [1], the “t½ Rabbit VH” value is above 1 h. In data set [2], the “t½ Rabbit AH” value is above 1 h.

With `CCCOC(=O)c1ccc(NC(=O)c2cccc(-c3cc(C(=O)Nc4ccncc4F)ccc3CN)c2)c(F)c1` [Compound 4, propyl 4-({3-[2-(aminomethyl)-5-[(3-fluoropyridin-4-yl)carbamoyl]phenyl]phenyl}amido)-3-fluorobenzoate], the “t½ Rabbit VH” value in data set [1] was above 1 h. Moreover, the “t½ Rabbit AH” value in data set [2] was above 1 h.

Turning to `COC(=O)c1ccc(NC(=O)c2cccc(-c3cc(C(=O)Nc4ccncc4F)ccc3CN)c2)cc1C` [Compound 5, methyl 4-({3-[2-(aminomethyl)-5-[(3-fluoropyridin-4-yl)carbamoyl]phenyl]phenyl}amido)-2-methylbenzoate], the “t½ Rabbit VH” value in data set [1] was above 1 h. Further, the “t½ Rabbit AH” value in data set [2] is above 1 h.

With `CCCOC(=O)c1ccc(NC(=O)c2cccc(-c3cc(C(=O)Nc4ccncc4F)ccc3CN)c2)cc1C` [Compound 6, propyl 4-({3-[2-(aminomethyl)-5-[(3-fluoropyridin-4-yl)carbamoyl]phenyl]phenyl}amido)-2-methylbenzoate], in data set [1], the “t½ Rabbit VH” value is above 1 h. For the same compound, the “t½ Rabbit AH” value in data set [2] was above 1 h.

Consider `COC(=O)c1ccc(C(=O)Nc2cccc(-c3cc(C(=O)Nc4ccncc4F)ccc3CN)c2)cc1` [Compound 7, methyl 4-({3-[2-(aminomethyl)-5-[(3-fluoropyridin-4-yl)carbamoyl]phenyl]phenyl}carbamoyl)benzoate], for which the half-life at 1 μM in data set [1] and in data set [2] was above 1 h throughout.

As to `COC(=O)c1ccc(C(=O)Nc2cccc(-c3cc(C(=O)Nc4ccncc4F)ccc3CN)c2)nc1` [Compound 8, methyl 6-({3-[2-(aminomethyl)-5-[(3-fluoropyridin-4-yl)carbamoyl]phenyl]phenyl}carbamoyl)pyridine-3-carboxylate], the half-life at 1 μM in data set [1] and in data set [2] was above 1 h throughout.

Take `COCCOC(=O)c1ccc(NC(=O)c2cccc(-c3cc(C(=O)Nc4ccncc4F)ccc3CN)c2)cc1` [Compound 9, 2-methoxyethyl 4-({3-[2-(aminomethyl)-5-[(3-fluoropyridin-4-yl)carbamoyl]phenyl]phenyl}amido)benzoate]: the “t½ Rabbit VH” value in data set [1] was above 1 h. Also, the “t½ Rabbit AH” value in data set [2] was above 1 h.

With `NCc1ccc(C(=O)Nc2ccncc2F)cc1-c1cccc(C(=O)Nc2ccc(C(=O)OCC3CCCO3)cc2)c1` (stereo not drawn) [Compound 10, oxolan-2-ylmethyl 4-({3-[2-(aminomethyl)-5-[(3-fluoropyridin-4-yl)carbamoyl]phenyl]phenyl}amido)benzoate], the “t½ Rabbit VH” value in data set [1] is above 1 h. Moreover, the “t½ Rabbit AH” value in data set [2] is above 1 h.
